Measured values published in patent publication US20200330447A1, “CANCER TREATMENT VIA REPOSITIONED TRICYCLIC ANTI-DEPRESSANT-LIKE DRUGS AS ANTI-CANCER AGENTS AND NEW COMBINATIONS OF SUCH DRUGS” (Board of Supervisors of Louisiana State University and …, priority 2015, published 2020).

Assays:
Type in all cases: cell-based
[1] = system: DU145 prostate cancer cells; assay: High content imaging-based screen (Cellomics) for lysosome migration inhibitors; conditions: pH 6.4 media, 2 micrograms per ml, 16 hours
Description: DEVELOPMENT OF A HIGH CONTENT IMAGING-BASED SCREEN: The followings process was followed to identify chemicals that were lysosome migration inhibitors. DU145 prostate cancer cells were seeded in 96 well flat bottom black walled plates at 4,500 cells per well. All compounds and controls were exposed to RPMI bicarbonate buffered media (pH 6.4). RPMI buffered media titrated at pH of 6.4-6.8 was added to column 12 after the media was removed and serves as negative control (low acidic pH so lysosomes move out). […] The 4 compound libraries chosen to screen were the NIH Clinical Collection (450 drugs), Prestwick (1200 drugs), Prestwick phytochemical and the Green Pharma collection (xx drugs). Compounds were diluted with buffered RPMI media to 2 micrograms per ml concentrations. Individual compounds to be screened were added robotically as a single compound per well through columns 2-11. Plates were incubated at 37 degrees in 5% CO2 for 16 hours then the medium was removed and the cells were fixed with 4% cold paraformaldehyde (Sigma-Aldrich) for 20 minutes at 4 degrees. Fixed cells were washed once with PBS. To stain lysosomes, cells were incubated for 1 hour with LAMP1 antibody (H4A3) diluted in BSP (containing 0.25% BSA and 0.1% saponin in PBS) at 1/200. Cells were then washed with PBS 3 times then incubated for 1 hour with Dylight Donkey anti-mouse diluted at 1/200 in BSP. To stain the nucleus, cells were then washed with PBS 3 times and incubated for 20 minutes with 1×DAPI diluted in PBS. DAPI was washed off with PBS and cells were maintained in PBS for the duration of the screening process. Plates were mounted and read in a Cellomics Arrayscan automated fluorescence imager. The Cellomics platform allows for high content throughput screening by combining fluorescence microscopy with a multi-parameter image analysis. Cells were photographed using 20× objective in 2 fluorescent channels. A total of 15 different fields in each well, and at least 300 cells were imaged per well. The biocompartmental analysis algorithm was used to identify each cell by its nucleus (channel 1 recognized by the DAPI stain) and to generate a cytoplasmic mask (ring) of 12 pixels width in which the inner ring was 6 pixels away from the nucleus. The algorithm calculates the number of lysosomes inside the ring as indicated by fluorescent LAMP-1 positive puncta in channel 2 as a mean ring spot count. Therefore, when lysosomes move away from the nucleus and disperse throughout the cytoplasm, the number of spots representing lysosomes inside the cytoplasmic ring increases (low pH conditions). By contrast, lysosomes cluster near the nucleus the numbers of spot inside the cytoplasmic ring decreases (EIPA treated).
Z′-factor is a simple statistical coefficient used to assess performance and quality of the assay in high-throughput screening. It is calculated with the formula: Z′=1-(3σct+3σcb)/|μct−μcb|, where p indicates mean, a represents standard deviation, “ct” indicates the positive control, “cb” indicates the negative control. […] If the Z′ is more than 0.5, the assay is considered to be high quality assay.
The Z′ factor of the assay was determined from the EIPA (positive control) and low pH (negative control). Experiments were run in duplicate. Only plates with positive Z′ factor was used for analysis.

[2] = system: U373 glioma cell lines; assay: Lysosome outward movement in U373 cells; conditions: method of FIG. 2
Description: A172 glioblastoma cells were treated overnight with 5 or 10 μM deptropine or pizotifen or with the deptropine or pizotifen in combination at 5 μM concentration. The next day, media was change to low pHe media containing deptropine or pizotifen and the cells were incubated for an additional 2 h. EIPA is a known inhibitor of lysosomal outward movement and represents the positive control. At the end of the incubation time, cells were fixed and stained for LAMP-1, filamentous actin and nuclei. Representative merged IF images depicting the effect of pHe 7.4, pHe 6.4, DMSO or deptropine and pizotifen on the distribution of lysosomes in A172 glioblastoma cells. On color versions of the Figure, red puncta are lysosomes, blue is nuclei and green is actin. As could be seen, lysosomes appear more peripherally distributed in A172 glioma cells than in cells treated with concentrations of 5 to 10 micromolar deptropine or pizotifen.
In an additional experiment, following the method whose results are shown in FIG. 2 above but with different cells, the broad range and general effectiveness of deptropine and pizotifen is shown beyond just in A172 glioblastoma cells. Specifically, deptropine and pizotifen were applied to U373 glioma cell lines instead of A172 glioblastoma cells.

[3] = system: A172 cells; assay: Standard MTS assay (proliferation); conditions: concentrations up to 10 micromolar
Description: A very beneficial aspect of the treatment with deptropine and pizotifen is shown in FIG. 11, namely that the actions of deptropine and pizotifen are not the result of toxicity. The standard MTS assay was performed for A172 cells in the presence of the indicate concentrations of deptropine and pizotifen.

Row | Structure (SMILES) | hit in screen for lysosome migration inhibitors (mean ring spot count) [1] | lysosome outward movement [2] | proliferation (MTS) [3]
1 | CN1[C@@H]2CC[C@H]1C[C@@H](OC1c3ccccc3CCc3ccccc31)C2 [deptropine, 3a-[(10, 11-dihydro-5H-dibenzo[a,d]cyclohepten-5-yl)oxy]1aH,5aH-tropane] | hits | block lysosome outward movement | do not inhibit proliferation
2 | CN1CCC(=C2c3ccccc3CCc3sccc32)CC1 [pizotifen, 4-(1-methyl-4-piperidylidine)-9,10-dihydro-4H-benzo-[4,5]cyclohepta[1,2]-thiophene] | hits | block lysosome outward movement | do not inhibit proliferation
